From patent publication US6914064B2, “1,4-Disubstituted piperazine derivatives useful as uro-selective α1-adrenoceptor blockers” (Ranbaxy Laboratories Limited, priority 2000, dated 2005) come the findings set out here.

Structures are written as SMILES.

The target of one data set is T1, α1A adrenoceptor (Rattus norvegicus, UniProt P43140).
T1 construct: from tissue; host or cells: rat submaxillary gland membranes
T1 sequence (P43140 1-466): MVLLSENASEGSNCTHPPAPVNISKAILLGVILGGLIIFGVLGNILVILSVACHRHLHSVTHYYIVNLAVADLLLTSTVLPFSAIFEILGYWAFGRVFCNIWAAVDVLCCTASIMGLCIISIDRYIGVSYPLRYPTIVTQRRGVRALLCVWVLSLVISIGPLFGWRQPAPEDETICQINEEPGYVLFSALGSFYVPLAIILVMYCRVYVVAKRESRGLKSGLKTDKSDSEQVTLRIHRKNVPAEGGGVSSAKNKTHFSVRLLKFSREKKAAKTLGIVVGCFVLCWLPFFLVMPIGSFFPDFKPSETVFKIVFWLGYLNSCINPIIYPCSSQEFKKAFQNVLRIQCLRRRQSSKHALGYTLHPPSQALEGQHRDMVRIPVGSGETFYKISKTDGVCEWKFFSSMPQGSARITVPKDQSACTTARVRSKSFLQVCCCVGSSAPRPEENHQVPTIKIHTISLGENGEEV
In words: Receptor binding assay, displacement of [3H]prazosin, rat submaxillary membranes. As to conditions: for Ki: [3H]prazosin displacement, rat submaxillary membranes, read-out: α1A (Rat submaxillary) Ki; for Selectivity α1B/α1A: ratio of Ki α1B (rat liver) / α1A (rat submaxillary). On the procedure:
Receptor binding assays were performed using native α-adrenoceptors.
(§1) Submaxillary glands were isolated immediately after sacrifice. The liver was perfused with buffer (Tris HCl 50 mM, NaCl 100 mM, 10 mM EDTA pH 7.4). The tissues were homogenised in 10 volumes of buffer (Tris HCl 50 mM, NaCl 100 mM, EDTA 10 mM, pH 7.4). The homogenate was filtered through two layers of wet gauze and filtrate was centrifuged at 500 g for 10 min. The supernatant was subsequently centrifuged at 40,000 g for 45 min. The pellet thus obtained was resuspended in the same volume of assay buffer (Tris HCl 50 mM, EDTA 5 mM, pH 7.4) and were stored at −70° C. until the time of assay.
(§2) The membrane homogenates (150-250 μg protein) were incubated in 250 μl of assay buffer (Tris HCl 50 mM, EDTA 5 mM, pH 7.4) at 24-25° C. for 1 h. Non-specific binding was determined in the presence of 300 nM prazosin. The incubation was terminated by vacuum filtration over GF/B fibre filters. The filters were then washed with ice cold 50 mM Tris HCl buffer (pH 7.4). The filtermats were dried and bound radioactivity retained on filters was counted.The IC50 & Kd were estimated by using the non-linear curve fitting program using G Pad Prism software.

The next data set deals with T2, α1B adrenoceptor (Rattus norvegicus, UniProt P15823).
T2 construct: from tissue; host or cells: rat liver membranes
T2 sequence (P15823 1-515): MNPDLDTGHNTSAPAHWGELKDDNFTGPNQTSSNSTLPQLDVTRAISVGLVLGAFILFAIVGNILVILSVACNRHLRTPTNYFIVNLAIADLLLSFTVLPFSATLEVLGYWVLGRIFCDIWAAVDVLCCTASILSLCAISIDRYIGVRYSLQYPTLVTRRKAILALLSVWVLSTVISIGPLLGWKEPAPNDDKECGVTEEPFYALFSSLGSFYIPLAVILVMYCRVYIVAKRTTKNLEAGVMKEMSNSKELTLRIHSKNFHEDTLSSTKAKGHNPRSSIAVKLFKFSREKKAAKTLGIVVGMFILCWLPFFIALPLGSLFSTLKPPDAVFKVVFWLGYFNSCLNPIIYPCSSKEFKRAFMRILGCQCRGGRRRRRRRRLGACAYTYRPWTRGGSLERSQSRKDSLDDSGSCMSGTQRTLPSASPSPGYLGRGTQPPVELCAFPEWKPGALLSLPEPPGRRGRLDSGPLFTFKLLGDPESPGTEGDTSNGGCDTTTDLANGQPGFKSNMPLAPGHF
Put plainly: Receptor binding assay, displacement of [3H]prazosin, rat liver membranes. The settings on record: [3H]prazosin displacement, rat liver membranes; read-out: α1B (Rat liver) Ki. On the procedure: Receptor binding assays were performed using native α-adrenoceptors. The affinity of different compounds for α1A and α1B adrenoceptor subtypes was evaluated by studying their ability to displace specific [^3H]prazosin binding from the membranes of rat submaxillary and liver respectively (Michel et al, Br J Pharmacol, 98, 883-889 (1989)). The binding assays were performed according to U'Prichard et al. (Eur J Pharmacol, 50:87-89 (1978)) with minor modifications.
as §1
as §2, with “software. The value of inhibition constant Ki was calculated from competitive binding studies by using Cheng & Prusoff equation (Cheng & Prusoff, Biochem Pharmacol, 1973,22: 3099-3108), Ki=IC50/(1+L/Kd) where L is the concentration of [^3H]prazosin used in the particular experiment (Table I).” for “software.”

The target in a further data set is T3, α1D adrenoceptor (aorta) (Rattus norvegicus, UniProt P23944).
T3 construct: Isolated tissues were mounted in organ bath containing Krebs Henseleit buffer; from tissue; host or cells: isolated aorta of male wistar rats
T3 sequence (P23944 1-561): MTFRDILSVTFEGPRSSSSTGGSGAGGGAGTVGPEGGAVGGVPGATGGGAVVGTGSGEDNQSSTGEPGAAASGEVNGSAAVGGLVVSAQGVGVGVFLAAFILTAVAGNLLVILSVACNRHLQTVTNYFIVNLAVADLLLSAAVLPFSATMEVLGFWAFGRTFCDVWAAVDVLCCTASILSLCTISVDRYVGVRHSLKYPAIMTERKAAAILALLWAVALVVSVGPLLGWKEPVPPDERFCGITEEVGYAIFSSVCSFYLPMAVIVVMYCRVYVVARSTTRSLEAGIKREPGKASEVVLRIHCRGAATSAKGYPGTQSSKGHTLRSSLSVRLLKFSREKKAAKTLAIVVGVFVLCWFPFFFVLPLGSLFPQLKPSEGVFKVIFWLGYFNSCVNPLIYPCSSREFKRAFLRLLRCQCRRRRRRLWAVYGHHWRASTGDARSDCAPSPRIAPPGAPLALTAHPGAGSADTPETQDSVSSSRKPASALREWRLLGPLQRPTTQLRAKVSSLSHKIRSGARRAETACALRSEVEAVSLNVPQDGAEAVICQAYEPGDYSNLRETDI
In words: In vitro functional study, antagonism of norepinephrine-induced contraction of aorta. It is filed as biochemical. As to conditions: tested compound at 0.1, 1 and 10 mM, read-out: α Adrenoceptor Subtype (pKB) α1D (converted). From the text: (§3) In order to study selectivity of action of these compounds towards different α-adrenoceptor subtypes, the ability of these compounds to antagonise α1-adrenoceptor agonist induced contractile response on aorta (α1Dprostate (α1A and spleen (α1B was studied. Aorta and spleen tissues were isolated from urethane anaesthetised (1.5 gm/kg) male wistar rats. Isolated tissues were mounted in organ bath containing Krebs Henseleit buffer of following composition (mM): NaCl 118; KCl 4.7; CaCl2 2.5; MgSO4. 7H2O 1.2; NaHCO3 25; KH2PO41.2; glucose 11.5. Buffer was maintained at 37° C. and aereated with a mixture of 95% O2 and 5% CO2. A resting tension of 2 g (aorta) or 1 g (spleen and prostate)was applied to tissues. Contractile response was monitored using a force displacement transducer and recorded on chart recorders. Tissues were allowed to equilibrate for 2 hours. At the end of equilibration period, concentration response curves to norepinephrine (aorta) and phenylepinephrine (spleen and prostate) were obtained in absence and presence of tested compound (at concentration of 0.1,1 and 10 mM). Antagonist affinity was calculated and expressed as pKB vales in Table II.

The target of data set [1] is T4, α1A adrenoceptor (prostate) (Rattus norvegicus, UniProt P43140).
T4 construct: from tissue; host or cells: isolated prostate tissue
T4 sequence (P43140 1-466): T1 sequence (P43140 1-466)
In words: In vitro functional study, antagonism of phenylepinephrine-induced contraction of prostate. The format is biochemical.
Text: as §3

`COc1cc(F)ccc1N1CCN(CCCN2C(=O)C3CC=CCC3C2=O)CC1.Cl` (stereo not drawn) [Compound 18, 2-[3-{4-(4-Fluoro-2-methoxyphenyl)piperazin-1-yl}propyl]-3a,4,7,7a-tetrahydro-1H-isoindole-1,3(2H)-dione hydrochloride]: the melting point was in the range of 232 to 233 °C. Further, at α1A adrenoceptor, the Ki is 0.01 µM and the “Selectivity α1B/α1A” value turned out to be 27. Further, the Ki at α1B adrenoceptor worked out at 0.271 µM.

For the molecule `Cl.O=C1C2CC=CCC2C(=O)N1CCCN1CCN(c2ccc(Cl)cc2Cl)CC1` (stereo not drawn) [Compound 20, 2-[3-{4-(2,4-Dichlorophenyl)piperazin-1-yl}propyl]-3a,4,7,7a-tetrahydro-1H-isoindole-1,3(2H)-dione hydrochloride], the melting point was in the range of 210 to 211 °C. Further, on α1A adrenoceptor, the inhibitory constant (Ki) came out at 0.0468 µM and the “Selectivity α1B/α1A” value worked out at 11. In addition, the Ki at α1B adrenoceptor was over 0.5 µM.

As to `COc1ccc(N2CCN(CCCN3C(=O)C4CC=CCC4C3=O)CC2)c(OC)c1.Cl` (stereo not drawn) [Compound 21, 2-[3-{4-(2,4-Dimethoxyphenyl)piperazin-1-yl}propyl]-3a,4,7,7a-tetrahydro-1H-isoindole-1,3(2H)-dione hydrochloride], the melting point lay in the range of 226 to 227 °C. Moreover, on α1A adrenoceptor, the Ki is over 0.5 µM and the “Selectivity α1B/α1A” value is listed as 1. The Ki on α1B adrenoceptor was over 0.5 µM.

The molecule `Cc1cccc(C)c1N1CCN(CCCN2C(=O)C3CC=CCC3C2=O)CC1.Cl` (stereo not drawn) [Compound 22, 2-[3-{4-(2,6-Dimethylphenyl)piperazin-1-yl}propyl]-3a,4,7,7a-tetrahydro-1H-isoindole-1,3(2H)-dione hydrochloride] gave a melting point of 223 to 224 °C. Besides, at α1A adrenoceptor, the inhibition constant Ki was determined as 0.208 µM and the “Selectivity α1B/α1A” value is on record as 2.4. In addition, the Ki at α1B adrenoceptor was over 0.5 µM.

Turning to `COc1ccc(OC)c(N2CCN(CCCN3C(=O)C4CC=CCC4C3=O)CC2)c1.Cl` (stereo not drawn) [Compound 26, 2-[3-{4-(2,5-Dimethoxyphenyl)piperazin-1-yl}propyl]-3a,4,7,7a-tetrahydro-1H-isoindole-1,3(2H)-dione hydrochloride], the melting point lay within 193 to 195 °C. Moreover, on α1A adrenoceptor, the Ki was determined as 0.038 µM and the “Selectivity α1B/α1A” value was found to be 13. Moreover, the Ki on α1B adrenoceptor is over 0.5 µM.

`CC(C)(C)c1ccc(N2CCN(CCCN3C(=O)C4CC=CCC4C3=O)CC2)cc1.Cl` (stereo not drawn) [Compound 27, 2-[3-{4-(4-tert-Butylphenyl)piperazin-1-yl}propyl]-3a,4,7,7a-tetrahydro-1H-isoindole-1,3(2H)-dione hydrochloride] came in with a melting point of 264 to 265 °C. Further, on α1A adrenoceptor, the inhibitory constant (Ki) is over 0.5 µM and the “Selectivity α1B/α1A” value is reported as 1. The Ki on α1B adrenoceptor is over 0.5 µM.

On to `COc1cccc(O)c1N1CCN(CCCN2C(=O)C3CC=CCC3C2=O)CC1.Cl` (stereo not drawn) [Compound 28, 2-[3-{4-(2-Methoxy-6-hydroxyphenyl)piperazin-1-yl}propyl]-3a,4,7,7a-tetrahydro-1H-isoindole-1,3(2H)-dione hydrochloride], for which the melting point lay within 267 to 268 °C. Further, at α1A adrenoceptor, the Ki was over 0.5 µM and the “Selectivity α1B/α1A” value amounted to 1. Further, on α1B adrenoceptor, the Ki was over 0.5 µM.

In turn, `COc1ccccc1N1CCN(CC(C)CN2C(=O)C3CC=CCC3C2=O)CC1.Cl` (stereo not drawn) [Compound 30, 2-[3-{4-(2-Methoxyphenyl)piperazin-1-yl}-2-methylpropyl]-3a,4,7,7a-tetrahydro-1H-isoindole-1,3(2H)-dione hydrochloride] yielded a melting point of 184 to 185 °C. Moreover, on α1A adrenoceptor, the inhibition constant (Ki) came out at 0.048 µM and the “Selectivity α1B/α1A” value is listed as 13. The inhibitory constant (Ki) on α1B adrenoceptor was found to be 0.611 µM.

In turn, `CCOc1ccccc1N1CCN(C(C)CCN2C(=O)C3CC=CCC3C2=O)CC1.Cl` (stereo not drawn) [Compound 31, 2-[3-{4-(2-Ethoxyphenyl)piperazin-1-yl}-3-methylpropyl]-3a,4,7,7a-tetrahydro-1H-isoindole-1,3(2H)-dione hydrochloride] had a melting point of 246 to 248 °C. On α1A adrenoceptor, the inhibitory constant (Ki) came to 0.0021 µM and the “Selectivity α1B/α1A” value was found to be 110. Moreover, the Kb on α1D adrenoceptor (aorta) is 0.0162 µM. Moreover, the “Selectivity α1A/α1D” value in data set [1] (functional assays, from pKB values) is reported as 3.24. In data set [1] (prostate, phenylepinephrine, tested compound at 0.1, 1 and 10 mM, read-out: α Adrenoceptor Subtype (pKB) α1A (converted)), the Kb was 0.00501 µM. Also, the inhibition constant (Ki) on α1B adrenoceptor was determined as 0.232 µM.
